Assay results as given in patent US8829014B2, “Thiazole and thiophene analogues, and their use in treating autoimmune diseases and cancers” (Board of Supervisors of Louisiana State University and …, priority 2006, dated 2014).

Key:
AP-1 = assay: PMA-induced AP-1 luciferase expression in HEK cells; format: cell-based; conditions: luciferase in HEK/AP-1 cells, as described in Example 398; for inhibition at 1 µM: AP1, 1 uM
carageenan-induced edema = assay: Carrageenan-induced rat paw edema test (anti-inflammatory activity); format: in vivo, Sprague-Dawley rats
Summary of the method: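 Sprague-Dawley rats (male and female, 150-250 g), fasted 18 h, given compound orally at 50 mg/kg in 0.1% sodium CMC (alternatively i.v., s.c. or i.p.). 1% carrageenan injected sub-plantar in right hind paw 1 h later. Paw displacement read again 3 h later; % protection = [(Control−Test)/Control]×100 versus saline control.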

NF-κB = assay: TNF-α-induced NF-κB-dependent luciferase expression in HEK cells; format: cell-based; conditions: luciferase in HEK/NF-κB cells, as described in Example 398; for inhibition at 1 µM: Homo sapiens, HEK293, 1 uM, read-out: NFkB inhibition @ 1 uM
[1] = rat paw edema, 50 mg/kg, reading 3 hours after carrageenan; [(Control−Test)/Control]×100%
[2] = Rattus norvegicus, po, 3 h, rat paw edema, 50 mg/kg, reading 3 hours after carrageenan; [(Control−Test)/Control]×100%; read-out: % Protection P
[3] = rat paw edema, 50 mg/kg, reading 3 hours after carrageenan; [(Control−Test)/Control]×100%; 50 mg/kg

Compound	AP-1 inhibition @ 1 uM (AP-1)	% Protection P (carageenan-induced edema; [1])	NFkB inhibition @ 1 uM (NF-κB)	inhibition at 1 µM (AP-1)	inhibition in vivo at 50 mg/kg (carageenan-induced edema; [2])	inhibition at 1 µM (NF-κB)	% Protection P (carageenan-induced edema; [3])
CSc1ccc(C(=O)c2cc(-c3ccc(NC(C)=O)cc3)c(N3CCOCC3)s2)cc1 [Example 71, N-{4-[5-(4-Methansulfanyl-benzoyl)-2-morpholin-4-yl-thiophene-3-yl]-phenyl}-acetamide]	27.75	2.5%	7.6				
CC(=O)Nc1ccc(C(=O)c2cc(-c3ccc(NC(C)=O)cc3)c(N3CCOCC3)s2)cc1 [Example 73, N-{4-[5-(4-acetylamino-benzoyl)-2-morpholin-4-yl-thiophene-3-yl]-phenyl}-acetamide]				19.9%	-23.5%	-28.6%	
CC(=O)Nc1ccc(-c2cc(C(=O)c3ccncc3)sc2N2CCOCC2)cc1 [Example 75, N-{4-[2-Morpholin-4-yl-5-(pyridine-4-carbonyl)-thiophene-3-yl]-phenyl}-acetamide]				45.5%	45.7%	17.4%	
COc1ccc(C(=O)c2cc(-c3ccc(Cl)cc3)c(N3CCOCC3)s2)cc1 [Example 80, [4-(4-Chloro-phenyl)-5-morpholin-4-yl-thiophen-2-yl]-(4-methoxy-phenyl)-methanone]				30.6%	18.9%	-2.91%	
O=C(c1cc(-c2ccc(Cl)cc2)c(N2CCOCC2)s1)c1ccc(Cl)cc1Cl [Example 82, [4-(4-Chloro-phenyl)-5-morpholin-4-yl-thiophen-2-yl]-(2,4-dichloro-phenyl)-methanone]				34.3%	22.8%	0.6%	
CS(=O)(=O)c1ccc(C(=O)c2cc(-c3ccc(Cl)cc3)c(N3CCOCC3)s2)cc1 [Example 84, [4-(4-Chloro-phenyl)-5-morpholin-4-yl-thiophen-2-yl]-(4-methansulfonyl-phenyl)-methanone]				30.9%	23%	-11.7%	
O=C(c1cccnc1)c1cc(-c2ccc(Cl)cc2)c(N2CCOCC2)s1 [Example 86, [4-(4-Chloro-phenyl)-5-morpholin-4-yl-thiophen-2-yl]-pyridin-3-yl-methanone]				15.2%	28.1%	3.6%	
Cc1ccc(C(=O)c2cc(-c3cccnc3)c(N3CCOCC3)s2)cc1 [Example 91, (5-Morpholin-4-yl-4-pyridin-3-yl-thiophene-2-yl)-p-tolyl-methanone]				49%	25.3%	1.28%	
CSc1ccc(C(=O)c2cc(-c3cccnc3)c(N3CCOCC3)s2)cc1 [Example 95, (4-Methylsulfanyl-phenyl)-(5-morpholin-4-yl-4-pyridin-3-yl-thiophen-2-yl)-methanone]	64.02		11.24				42.44%
CS(=O)(=O)c1ccc(C(=O)c2cc(-c3cccnc3)c(N3CCOCC3)s2)cc1 [Example 96, (4-Methylsulfonyl-phenyl)-(5-morpholin-4-yl-4-pyridin-3-yl-thiophen-2-yl)-methanone]				37.7%	46.8%	-12.9%	
COc1c(C)cc(-c2cc(-c3ccncc3)c(N3CCOCC3)s2)nc1C [Example 100, 4-[5-(5-Methoxy-4,6-dimethyl-pyridin-2-yl)-3-pyridin-4-yl-thiophen-2-yl]-morpholine]				47.4%	54.2%	5.21%	
Cc1ccc(C(=O)c2cc(-c3ccncc3)c(N3CCOCC3)s2)cc1 [Example 103, (5-Morpholin-4-yl-4-pyridin-4-yl-thiophene-2-yl)-p-tolyl-methanone]				4.35%	-30.8%	10.3%	
CSc1ccc(C(=O)c2cc(-c3cccnc3)c(N3CCOCC3)s2)cc1 [Example 107, (4-Methylsulfanyl-phenyl)-(5-morpholin-4-yl-4-pyridin-3-yl-thiophen-2-yl)-methanone]	19.05		1.69				−42.44%
CS(=O)(=O)c1ccc(C(=O)c2cc(-c3ccncc3)c(N3CCOCC3)s2)cc1 [Example 108, (4-Methylsulfonyl-phenyl)-(5-morpholin-4-yl-4-pyridin-4-yl-thiophen-2-yl)-methanone]				46.6%	54.2%	-8.31%	
COc1ccc(C(=O)c2sc(Nc3ccccc3)nc2NC(=O)Nc2ccc(F)cc2)cc1 [Example 117, 1-(4-Fluoro-phenyl)-3-[5-(4-methoxy-benzoyl)-2-phenylamino-thiazol-4-yl]-urea]				51%		22.1%	58.62%
CNc1nc(C)c(C(=O)c2sc(NC)nc2C)s1 [Example 118, Bis-(4-methyl-2-methylamino-thiazole-5-yl)-methanone]				33.4%	40.9%	8.84%	
Cc1nc(Nc2ccccc2)sc1C(=O)c1sc(Nc2ccccc2)nc1C [Example 119, Bis-(4-methyl-2-phenylamino-thiazole-5-yl)-methanone]				26%	45.5%	8.39%	
Cc1nc(Nc2ccc(Cl)cc2)sc1C(=O)c1sc(Nc2ccc(Cl)cc2)nc1C [Example 120, Bis-[2-(4-Chloro-phenylamino)-4-methyl-thiazole-5-yl]-methanone]				76.2%	64.6%	20.3%	
CCOC(=O)Nc1nc(C)c(C(=O)c2sc(NC(=O)OCC)nc2C)s1 [Example 124, Diethyl[carbonyl-bis(4-methyl-1,3-thiazole-5,2-diyl)]biscarbamate]				71.6%	65.7%	20.1%	
CNc1nc(-c2ccccc2)c(C(=O)c2sc(NC)nc2-c2ccccc2)s1 [Example 125, Bis-(2-methylamino-4-Phenyl-thiazole-5-yl)-methanone]				23.8%	23.2%	27.1%	
COC(=O)Nc1nc(Cc2ccccc2)c(C(=O)c2sc(NC(=O)OC)nc2Cc2ccccc2)s1 [Example 137, Dimethyl[carbonyl-bis(4-benzyl-1,3-thiazole-5,2-diyl)]biscarbamate]				51.3%	47.2%	7.69%	
CCOC(=O)Nc1nc(Cc2ccccc2)c(C(=O)c2sc(NC(=O)OCC)nc2Cc2ccccc2)s1 [Example 138, Diethyl[carbonyl-bis(4-benzyl-1,3-thiazole-5,2-diyl)]biscarbamate]				83.6%	88.9%	55.6%	
O=C(CCl)Nc1ccccc1C(=O)O [Example 139, 2-(2-Chloroacetylamino) benzoic acid]				74.4%	69.6%	62.6%	
O=c1c2ccccc2nc(-c2cc(-c3ccccc3)c(N3CCOCC3)s2)n1-c1ccccc1 [Example 272, 2-(5-Morpholin-4-yl-4-phenyl-thiophene-2-yl)-3-phenyl-3H-quinazolin-4-one]				11%	30%	-2%	
O=c1c2ccccc2nc(-c2cc(-c3ccc(Cl)cc3)c(N3CCOCC3)s2)n1-c1ccccc1 [Example 273, 2-[4-(4-Chloro-phenyl)-5-morpholin-4-yl-thiophen-2-yl]-3-phenyl-3H-quinazolin-4-one]				-17%	0%	-35%	
CS(=O)(=O)c1ccc(-c2cc(-c3nc4ccccc4c(=O)n3-c3ccccc3)sc2N2CCOCC2)cc1 [Example 275, 2-[4-(4-Methanesulfonyl-phenyl)-5-morpholin-4-yl-thiophen-2-yl]-3-phenyl-3H-quinazolin-4-one]				28%	25%	9%	
CSc1ccc(-c2cc(-c3nc4ccccc4c(=O)n3-c3ccccc3C)sc2N2CCOCC2)cc1 [Example 282, 2-[4-(4-Methylsulfanylphenyl)-5-morpholin-4-yl-thiophen-2-yl]-3-0-tolyl-3H-quinazolin-4-one]	−18	51%	53				
CC(=O)Nc1ccc(-c2cc(-c3nc4ccccc4c(=O)n3-c3cccc(C)c3)sc2N2CCOCC2)cc1 [Example 286, N-{4-[2-Morpholin-4-yl-5-(4-oxo-3-m-tolyl-3-,4-dihydro-quinazolin-2-yl)-thiophene-3-yl]-phenyl}-acetamide]	13	52%	35				
Cc1cccc(-n2c(-c3cc(-c4ccncc4)c(N4CCOCC4)s3)nc3ccccc3c2=O)c1 [Example 289, 2-(5-Morpholin-4-yl-4-pyridin-4-yl-thiophen-2-yl)-3-m-tolyl-3H-quinazolin-4-one]				35%	30%	42%	
